This series can be described thus: Solubility in DMSO. Type of series: physicochemical.

The source of these data is EP1611889A1, “ANTIBACTERIAL AGENT AND ANTICANCER AGENT” (MITSUBISHI CORPORATION, priority 2003, dated 2004).

A value given as a limit tells only on which side of the number the result lay.

Turning to “C60-bis(N,N-dimethyl-2-hexylpyyrolidinium iodido) [derivative 4]”, the “dissolved in DMSO at a concentration” value is given as at least 5 mM.
